The subject of series [1] is LEF-1 protein expression in K562 cells. Description: LEF-1 protein expression in K562 cells, Western blot. Format: cell-based. Conditions: imatinib 2 uM, rapamycin 10 ng/mL or both, 24 hours.
The test system of series [2] is LEF-1 IRES. Description: Dicistronic DNA transfection dual luciferase assay, LEF-1 IRES, K562 cells. It is filed as cell-based. Conditions: 2 μM imatinib, 24 hour treatment.
Series [3] concerns CVB3 IRES. Description: Capped dicistronic RNA transfection, CVB3 IRES firefly luciferase, K562 cells. Format: cell-based. Conditions: 2 μM imatinib, 24 hours. The method, then:
(§1) The capped dicistronic mRNAs were generated by in vitro transcription of the dicistronic (linearized with PMEI) plasmid using the T7-based Megascript in vitro transcription kit (Ambion) as per the manufacturer's protocol. The integrity of the transcripts was analyzed on a 1% agarose gel.
(§2) Approximately 6×10^5 cells (K562) were seeded in 6-well plates and 2 μg of in vitro synthesized dicistronic mRNA was transfected per well using the Transmessenger transfection kit (Qiagen). A ratio of 1:6 (1 μg of RNA: 6 μL of transmessenger reagent) was used according to the manufacturer's instructions. […] Cell lysates were then assayed for luciferase activities as described above. All transfections were performed in duplicate and carried out 3 times.
(§3) To determine whether Bcr-Abl regulation is compartmentalized and further examine whether it functions post-transcriptionally, an RNA transient transfection was carried out in K562 cells. […] In these experiments the inventors again utilized CVB3 as a control for regulation in subcellular compartments since it predominantly depends on cytoplasmic machinery for translation.

The subject of a further series is LEF1 mRNA. The series can be described thus: Northern blot of LEF1 mRNA in K562 cells. Conditions: 2 μM imatinib, 24 hours; for decrease of LEF1 mRNA levels (3.6 kb and 3.0 kb mRNAs): rapamycin 10 ng/mL or both, not normalized. It is filed as cell-based. How it is done:
Total RNA was isolated from K562 cells using TriZol reagent (Invitrogen) according to the manufacturer's instructions. […] Approximately 20 μg of total RNA from K562 cells was analyzed on a Northern blot for LEF1 expression, respectively. Northern blotting was carried out as described elsewhere and the LEF1 ORF (open reading frame) probe was generated as described elsewhere and radiolabeled with ^32P-dATP. The blot was stripped and rehybridized with a ^32P-dATP radioloabeled GAPDH loading control probe.
Panel B: Northern blot analysis of total RNA isolated from K562 cells treated with inhibitors as described above. The three LEF1 mRNAs are indicated by arrows. A radiolabeled LEF-1 ORF cDNA probe was used to detect LEF1 mRNAs in the top panel. The blot was stripped and reprobed with GAPDH.

In series [4] the test system is cap-dependent translation (RLuc). The series can be described thus: Dicistronic DNA transfection, RLuc cap-dependent translation, K562 cells. Conditions: 2 μM imatinib. It is filed as cell-based.
For series [5] the test system is unchanged. Description: Capped dicistronic RNA transfection, RLuc cap-dependent translation, K562 cells. Format: cell-based. As to conditions: 2 μM imatinib, 24 hours. How it is done:
as §1, §2, §3

Series [6] has as its system LEF-1 IRES. The series can be described thus: Capped dicistronic RNA transfection, LEF-1 IRES firefly luciferase, K562 cells. Conditions: 2 μM imatinib, 24 hours, p<0.001. Format: cell-based. How it is done: as §1, §2, §3
A further series deals with GAPDH mRNA. The series can be described thus: Northern blot of GAPDH mRNA (loading control) in K562 cells. It is filed as cell-based. As to conditions: 2 μM imatinib, 24 hours.
Series [7] has as its system cap-dependent translation (RLuc). The series can be described thus: Dicistronic DNA transfection, RLuc cap-dependent translation, Ba/F3-Bcr-Abl-WT cells. It is filed as cell-based, murine. Conditions: inhibitors for 6 hours. How it is done:
(§4) For transfection of the dicistronic plasmids into Ba/F3 cells, approximately 10×10^6 cells were seeded in […] and 10 μg of the reporter plasmid was transfected via a BTX 600 electroporator. […] Cell lysates were prepared for dual luciferase assays 8 hours post-transfection. […] Cell lysates were prepared for dual luciferase assays 24 hours post-transfection. Transfections were performed in duplicate and each experiment was carried out at least 3 times.
Cell lysates were assayed for luciferase activities using the Dual Luciferase Reporter Assay System (Promega) according to the manufacturer's protocol. Assays were performed using a SIRIUS luminometer (Berthold Detection Systems). FLuc:RLuc ratios were calculated for each sample, and the average value is represented as fold elevation over background, which is the Firefly luciferase: Renilla luciferase ratio (FLuc:RLuc) measured from the vector in the absence of an insert.
(§5) The dicistronic vector depicted in FIG. 4A contains 2 cistrons separated by an intercistronic region that also contains a hairpin structure. […] A dicistronic construct that contains the full length 1.2 kb LEF1 5′UTR and IRES, the empty vector with no insert (pRSTF), and the viral IRES of the well characterized coxsackievirus B3 (CVB3) were analyzed for comparison. […]

For series [8], the system named is LEF-1 protein expression in primary CML cells. Description: LEF-1 protein expression in primary CML cells, Western blot. Conditions: rapamycin 10 ng/mL, 24 hours. It is filed as cell-based, human.
Procedure: PB mononuclear cells (MNCs) were obtained by centrifugation through Ficoll-Hypaque, washed in PBS, and cryopreserved. To expand CML cells in vitro, cells were thawed and grown in media supplemented with 10% FBS and a growth factor cocktail consisting of 20 ng/ml granulocyte-macrophage colony stimulating factor, 20 ng/ml recombinant human interleukin 3, 20 ng/ml recombinant human stem cell factor, and 100 ng/ml granulocyte colony-stimulating factor. Following this, cells were incubated in liquid culture for 72-96 hrs, at 37° C. in a humidified atmosphere with 5% CO2 in serum-free medium (SFM) (StemCell Technologies, Vancouver, BC, Canada) supplemented with growth factors (GF) at concentrations similar to that found in stroma-conditioned medium. All cytokines were from PeproTech, Rocky Hills, N.J., except for GM-CSF (sargramostim, Immunex, Seattle, Wash.) and G-CSF (filgrastim, Amgen, Thousand Oaks, Calif.).
Series [9] relates to CVB3 IRES. Description: Dicistronic DNA transfection dual luciferase assay, CVB3 IRES, Ba/F3-Bcr-Abl-WT cells. Conditions: 10 ng/mL rapamycin, 6 hours. It is filed as cell-based, murine. How it is done: as §4
(§6) Cell lysates were assayed for luciferase activities using the Dual Luciferase Reporter Assay System (Promega) according to the manufacturer's protocol. Assays were performed using a SIRIUS luminometer (Berthold Detection Systems). FLuc:RLuc ratios were calculated for each sample, and the average value is represented as fold elevation over background, which is the Firefly luciferase: Renilla luciferase ratio (FLuc:RLuc) measured from the vector in the absence of an insert. […]
as §5

Another series concerns LEF1 IRES. Description: Dicistronic DNA transfection dual luciferase assay, LEF1 IRES, Ba/F3-Bcr-Abl-WT cells. It is filed as cell-based, murine. The method, then: as §4, §6, §5

“And” between values parts separate entries of the source, which are not always exact repeats. Equal entries are not always repeated. Structures can show the parent of a compound that is named as a salt.

Turning to `Cc1ccc(NC(=O)c2ccc(CN3CCN(C)CC3)cc2)cc1Nc1nccc(-c2cccnc2)n1` [imatinib, imatinib mesylate], the LEF-1 protein levels entry in series [1] is reported as “significantly down-regulated”. The “decrease in LEF-1 IRES activity” value in the series with LEF-1 IRES [2] amounted to 2.3 fold. Besides, in the series on LEF-1 IRES [2] (listed as Imatinib), the “decrease in LEF-1 IRES activity” value was 3-4 fold and 3 fold. Besides, the “effect on CVB3 IRES activity” value in the series with CVB3 IRES [3] is “insensitive”. In the series on LEF1 mRNA, the “decrease of LEF1 mRNA after normalizing with GAPDH mRNA levels” value is 2 fold; the “decrease of LEF1 mRNA levels (3.6 kb and 3.0 kb mRNAs)” value is 3 fold. In addition, in series [4], the “reduction of RLuc translation, average” value amounted to 2.6 fold. For the same molecule, in [5], the “inhibition of RLuc translation, average” value was 3.4 fold. Besides, in the series on LEF-1 IRES [6], the “reduction of LEF-1 IRES activity in the cytoplasm” value stood at 45%. Moreover, the “reduction of GAPDH mRNA levels” value in the series with GAPDH mRNA is given as 1.4 fold.
Regarding `CO[C@H]1C[C@@H]2CC[C@@H](C)[C@@](O)(O2)C(=O)C(=O)N2CCCC[C@H]2C(=O)O[C@H]([C@H](C)C[C@@H]2CC[C@@H](O)[C@H](OC)C2)CC(=O)[C@H](C)/C=C(\C)[C@@H](O)[C@@H](OC)C(=O)[C@H](C)C[C@H](C)/C=C/C=C/C=C/1C` [rapamycin], the LEF-1 protein levels result in [1] and in series [8] was “no effect” throughout. Also, the “decrease of LEF1 mRNA levels (3.6 kb and 3.0 kb mRNAs)” value in the series with LEF1 mRNA is recorded as around 2 fold. Moreover, the “decrease in RLuc activity (cap-dependent translation), average” value in series [7] is 2 fold. In the series with CVB3 IRES [9], the “decrease in CVB3 IRES activity (FLuc:RLuc)” value is given as 33%. For the same molecule, the “decrease in LEF-1 IRES activity (FLuc:RLuc)” value in the series with LEF1 IRES (10 ng/mL rapamycin, 6 hours) amounted to 38%.

B1: LEF1 IRES: human LEF1 5'UTR (1.178 kb) internal ribosome entry site, SEQ ID NO:1, in dicistronic vector pRSTF-LEF(1.2) (nucleic acid, listed as Homo sapiens)
DNA: TCAGCGCCGGCGAGGCGCGGGAGGAGGAGAAGCAGTGGGGAGGCGCAGCCGCTCACCTGCGGGGCAGGGCGCGGAGGAGGGACCCGGGCTGCGCGCTCTCGGGCCGAGGAACCAGGACGCGCCCGGAGCCTCGCACGCGGCCAAGCTCGGGGCGTCCCCTCCCCTCGGCCGGGCGAACTCAAGGGGCGCAGCTCTTTGCTTTGACAGAGCTGGCCGGCGGAGGCGTGCAGAGCGGCGAGCCGGCGAGCCAGGCTGAGAAACTCGAGCCGGGAACAAAGAGGGGTCGGACTGAGTGTGTGTGTCGGCTCGAGCTCCGGGCAGAGGCATTTGGGCCCGAGGCCCCCGCTGTGACTCCCCGAGACTCCGCAGTGCCCTCCACTGCGGAGTCCCCGCGCTTGCCGGCAAAAACTTTATTCTTGGCAAACTTCTCTTTCTCTTCCCCTCCTCCTCGGCCCCCATCTTCTGCTCCTCCTCCTTCTCTAGCAGATTAAATGAGCCTCGAGAAGAAAAACCGAAGCGAAAGGGAAGAAAATAAGAAGATCTAAAACGGACATCTCCAGCGTGGGTGGCTCCTTTTTCTTTTTCTTTTTTTCCCACCCTTCAGGAAGTGGACGTTTCGTTATCTTCTGATCCTTGCACCTTCTTTTGGGGCAAACGGGGCCCTTCTGCCCAGATCCCCTCTCTTTTCTCGGAAAACAAACTACTAAGTCGGCATCCGGGGTAACTACAGTGGAGAGGGTTTCCGCGGAGACGCGCCGCCGGACCCTCCTCTGCACTTTGGGGAGGCGTGCTCCCTCCAGAACCGGCGTTCTCCGCGCGCAAATCCCGGCGACGCGGGGTCGCGGGGTGGCCGCCGGGGCAGCCTCGTCTAGCGCGCGCCGCGCAGACGCCCCCGGAGTCGCCAGCTACCGCAGCCCTCGCCGCCCAGTGCCCTTCGGCCTCGGGGGCGGGCGCCTGCGTCGGTCTCCGCGAAGCGGGAAAGCGCGGCGGCCGCCGGGATTCGGGCGCCGCGGCAGCTGCTCCGGCTGCCGGCCGGCGGCCCCGCGCTCGCCCGCCCCGCTTCCGCCCGCTGTCCTGCTGCACGAACCCTTCCAACTCTCCTTTCCTCCCCCACCCTTGAGTTACCCCTCTGTCTTTCCTGCTGTTGCGCGGGTGCTCCCACAGCGGAGCGGAGATTACAGAGCCGCCGGGATGCCCCAACTCTCCGGAGGAGGTGGCGGCGGCGGGGGGGACCCGGAACTCTGCGCCACGGACGAGATGA
modifications: (298)..(1095) IRES Sequence; (298)..(656) IRES Module 1; (656)..(1095) IRES Module 2
As for B1, the “elevation in the FLuc:RLuc ratio over empty vector” value in the series with LEF1 IRES (8 hours post-transfection, no inhibitor) is 55 fold.

(Values after US20080096228A1, “Compositions And Methods Relating To Mammalian Internal Ribosome Entry Sites” (THE REGENTS OF THE UNIVERSITY OF CALIFORNIA, priority 2006, published 2008).)
